Laboratory results published in patent publication US20230381144A1, “COMPOSITIONS AND METHODS FOR TREATMENT OF PAIN” (SYNVENTA LLC, priority 2019, published 2023).

What was measured:
[1] = Radio-telemetry recording of core body temperature in conscious rats; assay type: in vivo, Sprague-Dawley rat
Protocol: A laparotomy is performed.
One week later, drugs tests are conducted.
FIGS. 2-4 all show an increase in core body temperature approaching and at the zero time point. Those skilled in the art would readily appreciate that this increase is an artifact in the study associated with the required handling of the animals to effectuate the dosing.

[2] = cited from earlier work
[3] = 0.003 mg/kg and 0.01 mg/kg, i.p.; male and female rats
Protocol: Adult male and female Sprague-Dawley are implanted with radio-telemetry transmitters for monitoring blood pressure and core body temperature. Radio-telemetry transmitter (DSI HD-S10) implantation is performed under sterile condition. Long-acting buprenorphine (1 mg/kg/day, SC) is administered prior to anesthesia for postoperative pain relief. Rats are anesthetized with 5% isoflurane and kept on 2% isoflurane to maintain a stable level of anesthesia. Body temperature is maintained during surgery using a heating pad. A laparotomy is performed. The catheter tip of the telemetry transmitter is secured with a 4-0 silk suture in the abdominal cavity. The body of the telemetry transmitter is placed in the abdominal cavity and secured to the abdominal wall. Approximately 100 μL of 0.25% marcaine is applied directly to the muscle incision, and the skin is then closed with a 5-0 Vicryl absorbable suture placed subcuticularly. After recovery from anesthesia, rats are returned to their home cages placed on DSI receivers.
After one week of recovery, rats are habituated to the drug administration procedure over three separate sessions. One week later, drugs tests are conducted. […]

CC(C)(C)c1ccc2c(c1)CC[C@H]2NC(=O)Nc1cccc2[nH]ncc12 [ABT-102, 1-[(1R)-5-tert-butyl-2,3-dihydro-1H-inden-1-yl]-3-(1H-indazol-4-yl)urea]
increase in body temperature above vehicle ([1]; conscious, telemetry-instrumented rat, ABT-102 3 and 10 mg/kg, p.o., FIG. 2): up to 1.0 °C

CC(=O)Nc1nc2c(Oc3cc(-c4ccc(C(F)(F)F)cc4)ncn3)cccc2s1 [AMG 517, N-(4-((6-(4-(trifluoromethyl)phenyl)pyrimidin-4-yl)oxy)benzo[d]thiazol-2-yl)acetamide]
temperature elevations ([2]; Phase 1b study, reason the study was halted): unexpectedly high temperature elevations | analgesic effect ([2]; review of the data for the 17 subjects enrolled): no clear analgesic effect

Cc1cccc([C@H](C)c2cnc[nH]2)c1C [dexmedetomidine]
effect of dexmedetomidine on its own (FIG. 5, mean arterial blood pressure) [3]: free from causing hypothermic effects | effect on ABT-102-induced hyperthermia at the lowest tested dose ([1]; dexmedetomidine 0.003 mg/kg in combination with ABT-102, FIG. 4): able to neutralize ABT-102-induced hyperthermia | effect on core body temperature ([1]; dexmedetomidine alone, 0.003 mg/kg, FIG. 3): no effect | effect on ABT-102-induced increase in core body temperature ([1]; dexmedetomidine in combination with ABT-102 5 mg/kg, p.o., FIG. 4, p<0.0001): prevented hyperthermic effects
